According to US9994548B2, “Phenyl-substituted nicotinic ligands, and methods of use thereof” (Georgetown University, priority 2011, dated 2018):
“Also recorded” adds a separate entry of the source.

Tests used:
[1] = test system: nicotine self-administration; experiment: Nicotine self-administration in rats; type: in vivo, rat
Method: (§1) The studies were conducted in accordance with the regulations outlined by the Duke University Animal Care and Use Committee. The rats housed in approved standard laboratory conditions in a Duke University vivarium facility near the testing room to minimize stress induced by transporting the rats. The rats were kept on a 12:12 reverse day/night cycle, so that they were in their active phase during behavioral testing. The rats in the drug iv self-administration studies were singly housed to prevent them from damaging each other's catheters. The rats in the locomotor activity studies were housed in groups of 2-3. All rats were allowed access to water at all times; the rats in the nicotine-self-administration study were fed daily approximately 30 minutes after completing the sessions while those in the locomotor activity study had continuous access to food.
(§2) VMY-2-95 was injected s.c. 10 minutes before testing in a volume of 1 mL/kg of saline. The doses (0, 0.3, 1 and 3 mg/kg) were given in a counterbalanced order with at least two days between successive injections.
Each infusion was immediately followed by a one-minute period in which the cue lights went out, the house light came on and responses were recorded but not reinforced.
After food training, the animals were surgically implanted with jugular catheters. […] Alpha of p<0.05 (two-tailed) was used as the threshold for significance.

locomotor activity = experiment: Locomotor activity in figure-8 maze; type: in vivo, rat; conditions: 1-hour session
Method: as §1, §2
Another set of rats (N=12) was tested for acute VMY-2-95 effects on locomotor activity in a figure-8 maze over the course of a 1-hour session (see FIG. 10). […] Numbers of photobeam breaks were recorded for five minutes blocks over the one-hour session. […]

α7 nAChR = biological target: T1, α7 nAChR (Rattus norvegicus, UniProt Q05941); experiment: [3H]-epibatidine radioligand competition binding assay; conditions: competition against [3H]-epibatidine
T1 construct: expressed in transfected cells
Method: (§3) Stably transfected cell lines, tissue culture conditions, membrane preparation procedures and binding assays were described previously. Briefly, cultured cells at >80% confluence were removed from their flasks (80 cm^2) with a disposable cell scraper and placed in 10 mL of 50 mM Tris.HCl buffer (pH 7.4, 4° C.). The cell suspension was centrifuged at 10,000×g for 5 min and the pellet was collected. The cell pellet was then homogenized in 10 mL buffer with a polytron homogenizer and centrifuged at 36,000 g for 10 min at 4° C. The membrane pellet was resuspended in fresh buffer, and aliquots of the membrane preparation were used for binding assays. The concentration of [^3H]-epibatidine used was ˜500 pM for competition binding assays. […] Bound and free ligands were separated by vacuum filtration through Whatman GF/C filters treated with 0.5% polyethylenimine. The filter-retained radioactivity was measured by liquid scintillation counting. Specific binding was defined as the difference between total binding and nonspecific binding. Data from competition binding assays were analyzed using Prism 5 (GraphPad Software, San Diego, Calif.).
(§4) The in vitro binding affinities of the new ligands were measured for defined receptor subtypes (α2β2, α2β4, α3β2, α3β4, α4β2, α4β4, α6β2, α6β4, and α7) expressed in stably transfected cell lines. [^3H]Epibatidine ([^3H]EB) binds to the agonist recognition site of all of the defined receptor subtypes with high affinities. Rat forebrain homogenates were included to allow comparison between the heterologous and native α4β2 and α7 nAChRs. See FIG. 18 for binding affinity values (Ki) of the ligands at the three major nAChR subtypes (α3β4, […], and α7).
(§5) The binding affinities of all compounds synthesized for the receptor subtypes were examined in binding competition studies against [^3H]-epibatidine.

α3β4 nAChR = biological target: T2, α3β4 nAChR (Rattus norvegicus, UniProt P04757+P12392); experiment: as above; conditions: competition against [3H]-epibatidine, stably transfected cell membranes; read-out: Ki α3β4
T2 construct: expressed in transfected cells; host or cells: HEK 293 (KXα3β4R2)
Method: as §3, §4, §5

α4β2 nAChR = biological target: T3, α4β2 nAChR (Rattus norvegicus, UniProt P09483+P12390); experiment: as above; conditions: competition against [3H]-epibatidine, stably transfected cell membranes; read-out: Ki α4β2
T3 construct: expressed in transfected cells
Method: as §3, §4, §5

Q: For `C(#Cc1cncc(OC[C@@H]2CCN2)c1)c1ccccc1` [VMY-2-95, (S)-3-(azetidin-2-ylmethoxy)-5-(phenylethynyl)pyridine], which “nicotine self-administration (number of nicotine infusions) vs saline vehicle” value ([1]; 3 mg/kg s.c., 10 min before session, p<0.025) is on record?
A: Its value is “significantly reduces; also recorded: significant (p<0.025) decrease”.

Q: And the “intravenous nicotine self-administration, overall dose effect” value ([1]; 0.3, 1, 3 mg/kg s.c., F(3,42)=3.36, p<0.05)?
A: The value was “decreased intravenous nicotine self-administration in a dose-dependent manner”.

Q: What about the “nicotine self-administration vs saline vehicle” value ([1]; lower doses 0.3 and 1 mg/kg s.c.) of the same molecule?
A: The value was “did not produce significant decreases; also recorded: did not produce significant effects”.

Q: And the “dose at peak of increased locomotor activity” value (locomotor activity; s.c.)?
A: The value was 1 mg/kg.

Q: And the locomotor activity (locomotor activity; three doses tested (0.3, 1, 3 mg/kg s.c.))?
A: Its locomotor activity is “significantly increased”.

Q: And the Ki (α7 nAChR)?
A: The Ki was 580 nM.

Q: What about the Ki (α3β4 nAChR) of the same molecule?
A: Its Ki is 650 nM.

Q: And the Ki (α4β2 nAChR)?
A: The Ki was 0.049 nM.
